{"source": "ChEMBL document CHEMBL1275320", "about": "“Positive allosteric modulators of the α-amino-3-hydroxy-5-methyl-4-isoxazolepropionic acid (AMPA) receptor” (J Med Chem, 2010)", "key": {"[1]": {"target": "Glutamate receptor AMPA 3/4 (Homo sapiens, UniProt P42263+P48058)", "sequence (P48058 whole entry)": "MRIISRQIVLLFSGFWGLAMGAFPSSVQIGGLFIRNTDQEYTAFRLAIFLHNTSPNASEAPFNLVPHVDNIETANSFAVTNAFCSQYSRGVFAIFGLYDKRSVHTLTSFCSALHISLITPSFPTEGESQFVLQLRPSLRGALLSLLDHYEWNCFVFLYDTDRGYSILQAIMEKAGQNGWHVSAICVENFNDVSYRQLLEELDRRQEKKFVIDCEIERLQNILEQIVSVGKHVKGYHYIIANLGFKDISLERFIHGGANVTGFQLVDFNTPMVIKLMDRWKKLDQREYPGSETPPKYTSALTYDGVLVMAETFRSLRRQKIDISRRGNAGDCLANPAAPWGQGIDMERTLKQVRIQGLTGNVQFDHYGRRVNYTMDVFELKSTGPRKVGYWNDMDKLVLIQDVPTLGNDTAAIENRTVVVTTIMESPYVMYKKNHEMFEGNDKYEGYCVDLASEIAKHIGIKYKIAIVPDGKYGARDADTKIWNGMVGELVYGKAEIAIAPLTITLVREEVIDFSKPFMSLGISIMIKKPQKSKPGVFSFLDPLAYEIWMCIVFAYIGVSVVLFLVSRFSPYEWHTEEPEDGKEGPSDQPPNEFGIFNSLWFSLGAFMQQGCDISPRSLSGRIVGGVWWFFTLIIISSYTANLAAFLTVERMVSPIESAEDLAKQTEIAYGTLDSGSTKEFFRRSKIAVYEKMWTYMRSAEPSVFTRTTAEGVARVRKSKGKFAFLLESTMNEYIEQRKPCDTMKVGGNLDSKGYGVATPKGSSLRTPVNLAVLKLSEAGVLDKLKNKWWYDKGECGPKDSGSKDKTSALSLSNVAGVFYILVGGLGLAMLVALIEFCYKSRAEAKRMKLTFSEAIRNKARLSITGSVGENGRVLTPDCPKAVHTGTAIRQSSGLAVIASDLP", "sequence (P42263 whole entry)": "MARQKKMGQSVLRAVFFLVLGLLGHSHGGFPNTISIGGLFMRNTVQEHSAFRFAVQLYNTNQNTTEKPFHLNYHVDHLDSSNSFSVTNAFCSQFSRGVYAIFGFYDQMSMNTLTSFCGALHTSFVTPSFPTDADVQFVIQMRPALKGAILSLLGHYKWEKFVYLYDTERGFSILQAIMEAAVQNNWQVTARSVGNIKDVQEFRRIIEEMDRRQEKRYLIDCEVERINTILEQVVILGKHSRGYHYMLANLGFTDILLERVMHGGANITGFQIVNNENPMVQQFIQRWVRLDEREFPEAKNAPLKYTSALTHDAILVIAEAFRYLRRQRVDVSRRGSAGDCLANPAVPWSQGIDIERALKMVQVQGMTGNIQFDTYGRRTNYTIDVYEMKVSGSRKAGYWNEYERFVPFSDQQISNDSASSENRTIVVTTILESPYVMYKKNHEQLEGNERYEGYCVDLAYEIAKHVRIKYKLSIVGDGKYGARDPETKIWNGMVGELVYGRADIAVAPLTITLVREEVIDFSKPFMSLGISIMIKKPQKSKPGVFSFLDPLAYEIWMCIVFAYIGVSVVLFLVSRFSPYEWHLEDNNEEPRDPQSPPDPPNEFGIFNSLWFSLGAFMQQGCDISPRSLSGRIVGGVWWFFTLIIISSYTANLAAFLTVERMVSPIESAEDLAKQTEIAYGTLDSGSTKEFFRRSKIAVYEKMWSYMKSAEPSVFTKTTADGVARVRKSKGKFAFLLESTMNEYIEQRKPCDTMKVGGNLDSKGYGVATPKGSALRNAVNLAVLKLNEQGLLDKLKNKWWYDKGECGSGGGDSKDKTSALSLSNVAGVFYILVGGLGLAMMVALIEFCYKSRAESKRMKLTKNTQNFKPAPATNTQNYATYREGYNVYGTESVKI", "test": "Inhibition of GluR3/4 expressed in Xenopus oocyte"}, "[2]": {"test": "Agonist activity at rat AMPA receptor assessed as AMPA-induced calcium uptake", "type": "functional"}, "[3]": {"target": "T1, Glutamate receptor 2 (Homo sapiens, UniProt P42262)", "T1 sequence (P42262 whole entry)": "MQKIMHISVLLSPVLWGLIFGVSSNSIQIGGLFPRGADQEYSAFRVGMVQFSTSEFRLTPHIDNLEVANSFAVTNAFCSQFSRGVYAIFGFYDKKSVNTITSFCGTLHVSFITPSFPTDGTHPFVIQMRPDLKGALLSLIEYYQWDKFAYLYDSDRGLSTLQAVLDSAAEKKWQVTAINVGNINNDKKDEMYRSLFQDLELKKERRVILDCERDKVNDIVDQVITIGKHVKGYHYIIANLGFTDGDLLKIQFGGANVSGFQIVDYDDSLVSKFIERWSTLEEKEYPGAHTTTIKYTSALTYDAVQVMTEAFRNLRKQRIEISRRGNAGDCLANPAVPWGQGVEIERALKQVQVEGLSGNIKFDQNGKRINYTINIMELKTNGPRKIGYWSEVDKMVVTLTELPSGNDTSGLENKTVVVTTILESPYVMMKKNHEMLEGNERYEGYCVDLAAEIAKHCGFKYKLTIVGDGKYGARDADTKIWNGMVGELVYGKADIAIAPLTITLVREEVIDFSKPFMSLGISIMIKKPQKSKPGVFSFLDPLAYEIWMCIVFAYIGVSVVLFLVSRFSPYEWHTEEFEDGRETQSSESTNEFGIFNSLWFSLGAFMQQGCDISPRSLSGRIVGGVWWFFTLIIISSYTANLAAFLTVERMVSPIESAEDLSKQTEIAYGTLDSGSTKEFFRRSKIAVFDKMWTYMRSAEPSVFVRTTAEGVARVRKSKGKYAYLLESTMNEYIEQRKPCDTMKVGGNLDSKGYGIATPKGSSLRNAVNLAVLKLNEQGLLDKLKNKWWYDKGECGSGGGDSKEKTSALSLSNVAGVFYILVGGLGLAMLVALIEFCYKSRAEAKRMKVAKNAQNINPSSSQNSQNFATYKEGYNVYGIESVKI", "test": "Inhibition of human recombinant GluR2"}, "[4]": {"test": "Agonist activity at AMPA receptor at 30 uM by FLIPR assay", "type": "functional"}, "[5]": {"target": "Glutamate receptor 4 (Homo sapiens, UniProt P48058)", "sequence (P48058 whole entry)": "as the sequence (P48058 whole entry) above", "test": "Inhibition of GluR4 expressed in HEK293 cells", "type": "cell-based"}, "[6]": {"target": "T1, Glutamate receptor 2", "test": "Inhibition of GluR2 flop expressed in HEK cells", "type": "cell-based, HEK293"}, "[7]": {"target": "Glutamate receptor 4 (Rattus norvegicus, UniProt P19493)", "sequence (P19493 whole entry)": "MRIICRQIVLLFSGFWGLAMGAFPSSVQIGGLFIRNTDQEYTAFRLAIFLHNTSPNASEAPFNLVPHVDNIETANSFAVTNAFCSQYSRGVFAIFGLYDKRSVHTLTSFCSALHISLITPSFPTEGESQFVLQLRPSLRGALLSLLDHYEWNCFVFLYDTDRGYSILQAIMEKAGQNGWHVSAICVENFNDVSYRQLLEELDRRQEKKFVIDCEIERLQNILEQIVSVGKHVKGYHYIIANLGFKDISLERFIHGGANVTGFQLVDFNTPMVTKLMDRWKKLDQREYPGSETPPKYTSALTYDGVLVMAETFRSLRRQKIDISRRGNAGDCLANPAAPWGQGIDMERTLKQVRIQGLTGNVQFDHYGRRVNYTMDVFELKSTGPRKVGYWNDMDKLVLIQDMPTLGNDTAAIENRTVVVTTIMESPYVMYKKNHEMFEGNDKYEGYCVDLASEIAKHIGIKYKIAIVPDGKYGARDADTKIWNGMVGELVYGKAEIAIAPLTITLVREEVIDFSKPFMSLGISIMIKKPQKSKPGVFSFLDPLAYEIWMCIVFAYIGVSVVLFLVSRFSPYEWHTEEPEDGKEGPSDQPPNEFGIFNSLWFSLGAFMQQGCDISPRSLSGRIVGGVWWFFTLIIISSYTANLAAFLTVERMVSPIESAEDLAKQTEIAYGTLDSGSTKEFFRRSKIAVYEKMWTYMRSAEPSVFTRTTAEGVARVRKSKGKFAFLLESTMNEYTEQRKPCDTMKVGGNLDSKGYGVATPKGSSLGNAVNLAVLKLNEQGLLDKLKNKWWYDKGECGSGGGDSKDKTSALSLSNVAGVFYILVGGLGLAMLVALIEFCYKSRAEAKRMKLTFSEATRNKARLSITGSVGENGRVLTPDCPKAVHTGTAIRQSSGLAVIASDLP", "test": "Inhibition of rat recombinant GluR4 in cells"}, "[8]": {"target": "T1, Glutamate receptor 2", "test": "Agonist activity at GluR2 receptor", "type": "functional"}, "[9]": {"species": "Rattus norvegicus", "test": "Agonist activity at rat AMPA receptor assessed as change in EPSC amplitude", "type": "functional"}, "[10]": {"test": "Agonist activity at AMPA receptor in rat cortical neurons assessed as change in increase in AMPA current", "type": "functional"}, "[11]": {"target": "Glutamate receptor AMPA 3/4 (Rattus norvegicus, UniProt P19492+P19493)", "test": "Inhibition of GluR3/4 rat in hippocampal neuron", "type": "tissue-based, Hippocampus"}, "[12]": {"target": "Glutamate receptor 1 (Homo sapiens, UniProt P42261)", "sequence (P42261 whole entry)": "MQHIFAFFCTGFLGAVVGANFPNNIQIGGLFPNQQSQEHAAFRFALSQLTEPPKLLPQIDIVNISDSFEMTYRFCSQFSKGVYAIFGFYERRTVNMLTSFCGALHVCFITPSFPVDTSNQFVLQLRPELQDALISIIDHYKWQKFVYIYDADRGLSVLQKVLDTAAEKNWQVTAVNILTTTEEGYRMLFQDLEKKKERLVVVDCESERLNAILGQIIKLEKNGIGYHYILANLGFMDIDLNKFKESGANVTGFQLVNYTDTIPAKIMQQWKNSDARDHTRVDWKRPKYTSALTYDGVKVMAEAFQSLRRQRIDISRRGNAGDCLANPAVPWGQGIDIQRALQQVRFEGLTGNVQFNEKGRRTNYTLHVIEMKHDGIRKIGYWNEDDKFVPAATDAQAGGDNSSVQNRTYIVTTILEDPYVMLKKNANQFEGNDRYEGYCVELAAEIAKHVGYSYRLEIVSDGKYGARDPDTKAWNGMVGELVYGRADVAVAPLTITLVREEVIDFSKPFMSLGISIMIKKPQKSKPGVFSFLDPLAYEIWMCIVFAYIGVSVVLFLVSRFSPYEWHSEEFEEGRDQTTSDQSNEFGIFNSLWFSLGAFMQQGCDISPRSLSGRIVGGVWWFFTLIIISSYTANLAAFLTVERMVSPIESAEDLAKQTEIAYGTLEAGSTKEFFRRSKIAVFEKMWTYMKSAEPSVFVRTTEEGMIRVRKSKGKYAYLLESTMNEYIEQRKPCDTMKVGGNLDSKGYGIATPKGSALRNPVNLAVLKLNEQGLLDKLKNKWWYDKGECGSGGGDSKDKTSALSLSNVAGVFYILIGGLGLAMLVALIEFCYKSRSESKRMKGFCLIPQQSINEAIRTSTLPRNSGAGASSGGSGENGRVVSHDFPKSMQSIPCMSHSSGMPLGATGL", "test": "Inhibition of GluR1 expressed in HEK cells", "type": "cell-based, HEK293"}, "[13]": {"test": "Agonist activity at AMPA receptor by FLIPR assay", "type": "functional"}, "[14]": {"target": "T1, Glutamate receptor 2", "test": "Inhibition of GluR2 expressed in HEK cells at 3 uM", "type": "cell-based", "settings": "HEK293"}, "[15]": {"target": "Glutamate receptor 3 (Homo sapiens, UniProt P42263)", "sequence (P42263 whole entry)": "as the sequence (P42263 whole entry) above", "test": "Inhibition of GluR3 expressed in HEK cells", "type": "cell-based, HEK293"}}, "note": "Values joined by “and” are separate entries in the source; they are usually repeats but may differ in a detail not shown here. Equal values may be shown once.", "data": [{"molecule": "COc1ccc(C(=O)N2CCCC2=O)cc1", "values": [{"measurement": "EC50", "setting": "[1]", "value": "> 1000", "unit": "µM"}, {"measurement": "EC50", "setting": "[2]", "value": "> 100", "unit": "µM"}]}, {"molecule": "CN(C)C(=O)c1ccc(-n2nc(C(F)(F)F)c3c2CCOC3)cc1", "values": [{"measurement": "EC50", "setting": "[3]", "value": "< 300", "unit": "µM"}, {"measurement": "Activity", "setting": "[4]", "value": 14, "unit": "%"}]}, {"molecule": "CC(CNS(C)(=O)=O)c1ccc(C(C)(C)C)cc1", "note": "(stereo unspecified)", "values": [{"measurement": "EC50", "setting": "[5]", "value": 1.2, "unit": "µM"}]}, {"molecule": "C[C@@H](CNS(C)(=O)=O)c1ccccc1", "values": [{"measurement": "EC50", "setting": "[6]", "value": 1980, "unit": "µM"}]}, {"molecule": "C[C@H](CNS(C)(=O)=O)c1ccc(-c2ccc([C@@H](C)CNS(C)(=O)=O)cc2)cc1", "values": [{"measurement": "EC50", "setting": "[7]", "value": 0.87, "unit": "µM"}]}, {"molecule": "CC(C)S(=O)(=O)NC[C@H](C)c1ccc(-c2ccc(CCNS(C)(=O)=O)cc2)cc1", "note": "[MIBAMPATOR]", "values": [{"measurement": "EC50", "setting": "[5]", "value": 0.15, "unit": "µM"}]}, {"molecule": "CC(C)S(=O)(=O)N[C@@H]1CCC[C@@H]1c1ccc(Br)cc1", "values": [{"measurement": "EC50", "setting": "[5]", "value": 0.52, "unit": "µM"}, {"measurement": "EC50", "setting": "[8]", "value": 0.52, "unit": "µM"}]}, {"molecule": "O=C1CCCN1[C@H]1Cc2ccc(-n3cc(C4CC4)c(C(F)(F)F)n3)cc2C1", "values": [{"measurement": "EC50", "setting": "[3]", "value": "< 300", "unit": "µM"}]}, {"molecule": "COCc1cccc(C(=O)N2CCCCC2)c1", "values": [{"measurement": "Activity", "setting": "[9]", "value": 25, "unit": "%"}]}, {"molecule": "NS(=O)(=O)c1cc2c(cc1Cl)NC(C1CC3C=CC1C3)NS2(=O)=O", "note": "(stereo unspecified) [CYCLOTHIAZIDE]", "values": [{"measurement": "EC2", "setting": "[10]", "value": 1.6, "unit": "µM"}]}, {"molecule": "O=S1(=O)N[C@H]2CCCN2c2ccc(Cl)cc21", "values": [{"measurement": "EC2", "setting": "[10]", "value": 60, "unit": "µM"}]}, {"molecule": "O=C1c2cc3c(cc2OC2CCCN12)OCCO3", "note": "(stereo unspecified)", "values": [{"measurement": "EC50", "setting": "[11]", "value": 43.7, "unit": "µM"}, {"measurement": "EC50", "setting": "[12]", "value": 21, "unit": "µM"}]}, {"molecule": "O=C1c2cc3nnn(CCc4cccc(F)c4)c(=O)c3cc2OCN1C1CC1", "values": [{"measurement": "EC2", "setting": "[10]", "value": 0.1, "unit": "µM"}]}, {"molecule": "CC1(C)CC(=O)C2=C(C1)OC(N)=C(C#N)C2c1ccc2ccccc2c1", "note": "(stereo unspecified)", "values": [{"measurement": "EC50", "setting": "[1]", "value": 1.6, "unit": "µM"}, {"measurement": "EC2", "setting": "[10]", "value": 1.6, "unit": "µM"}]}, {"molecule": "CC(C)S(=O)(=O)NCCCCCCCNS(=O)(=O)C(C)C", "values": [{"measurement": "EC50", "setting": "[12]", "value": 2.88, "unit": "µM"}]}, {"molecule": "CC(=O)c1s/c(=N\\c2ccc(OC(F)(F)F)cc2)n(CCO)c1C", "values": [{"measurement": "EC50", "setting": "[8]", "value": "< 200", "unit": "µM"}, {"measurement": "Activity", "setting": "[4]", "value": 15, "unit": "%"}]}, {"molecule": "CC(C)S(=O)(=O)N[C@H]1Cc2ccc(-n3nc(C(F)(F)F)c4c3CCCC4)cc2C1", "values": [{"measurement": "EC50", "setting": "[3]", "value": "< 300", "unit": "µM"}]}, {"molecule": "CCN1CC[C@@H](c2ccc(-c3ccccc3)cc2)[C@H](NS(=O)(=O)C(C)C)C1", "values": [{"measurement": "EC50", "setting": "[13]", "value": "< 10", "unit": "µM"}]}, {"molecule": "CC(CNS(=O)(=O)C(C)C)c1ccc(Br)cc1", "note": "(stereo unspecified)", "values": [{"measurement": "inhibition", "setting": "[14]", "value": 26, "unit": "%"}]}, {"molecule": "O=C(c1ccc2nccnc2c1)N1CCCCC1", "note": "[CX516]", "values": [{"measurement": "EC50", "setting": "[11]", "value": 95, "unit": "µM"}, {"measurement": "Activity", "setting": "[9]", "value": 68, "unit": "%"}, {"measurement": "EC50", "setting": "[5]", "value": "156 µM and > 1000 µM"}]}, {"molecule": "O=C(Cn1nc(C(F)(F)F)c2c1CCCC2)Nc1sc2c(c1C(=O)NCCc1ccccn1)CCCC2", "values": [{"measurement": "EC50", "setting": "[12]", "value": "< 10", "unit": "µM"}]}, {"molecule": "O=C(c1ccc2nonc2c1)N1CCCCC1", "note": "[FARAMPATOR]", "values": [{"measurement": "EC50", "setting": "[1]", "value": 14, "unit": "µM"}]}, {"molecule": "CC(C)S(=O)(=O)N[C@@H]1CCC[C@@H]1c1ccc(I)cc1", "values": [{"measurement": "EC50", "setting": "[5]", "value": 0.23, "unit": "µM"}]}, {"molecule": "O=C1CCCN1Cc1ccc(-n2nc(C(F)(F)F)c3c2COCC3)cc1F", "values": [{"measurement": "EC50", "setting": "[3]", "value": "< 300", "unit": "µM"}]}, {"molecule": "CC(CNS(=O)(=O)C(C)C)c1ccc(-c2ccc(C#N)cc2)cc1", "note": "(stereo unspecified)", "values": [{"measurement": "EC50", "setting": "[12]", "value": 5.65, "unit": "µM"}, {"measurement": "EC50", "setting": "[6]", "value": 1.44, "unit": "µM"}, {"measurement": "EC50", "setting": "[13]", "value": 0.29, "unit": "µM"}, {"measurement": "EC50", "setting": "[15]", "value": 1.66, "unit": "µM"}, {"measurement": "EC50", "setting": "[8]", "value": 0.15, "unit": "µM"}]}, {"molecule": "CC(C)S(=O)(=O)NCCCCCCCCNS(=O)(=O)C(C)C", "values": [{"measurement": "EC50", "setting": "[12]", "value": 0.91, "unit": "µM"}]}, {"molecule": "CC(C)S(=O)(=O)NCCCCCCCCCNS(=O)(=O)C(C)C", "values": [{"measurement": "EC50", "setting": "[12]", "value": 0.66, "unit": "µM"}]}, {"molecule": "CC(C)S(=O)(=O)N[C@@H]1CN(C)C[C@@H]1c1ccc(-c2ccc(N(C)S(C)(=O)=O)cc2)cc1", "values": [{"measurement": "EC50", "setting": "[3]", "value": 1.6, "unit": "µM"}]}, {"molecule": "O=C(c1ccc2c(c1)OCCO2)N1CCCCC1", "values": [{"measurement": "EC50", "setting": "[11]", "value": 1600, "unit": "µM"}]}]}
